Experimental data published in patent publication US12521375B2, “Pharmaceutical composition for treating fatty liver disease” (Shionogi & Co., Ltd., priority 2020, dated 2026).

Tests used:
[1] = target: recombinant human ACC1 (Homo sapiens (Human), UniProt Q13085); test: Measurement of inhibitory activity of human ACC1; type: biochemical; details: read-out: IC50 hACC1
Source text: A cDNA encoding human ACC1 protein (1 amino acid residue to 2346 amino acid residues from the N-terminus) was cloned from a human liver cDNA library (BioChain Institute Inc.), myc tag and His-tag sequences were introduced at the 3′ end, and then inserted into pIEXBAC3 (Novagen). A recombinant baculovirus was produced in accordance with the protocol for FlashBACGOLD (Oxford Expression Technologies Ltd.), and Sf-9 cells were infected therewith to express human ACC1 protein. The recovered cells were crushed, filtered through a filter, and then subjected to Ni affinity chromatography and anion exchange chromatography. Fractions containing human ACC1 protein were collected to obtain recombinant human ACC1.
The recombinant human ACC1 and the recombinant human ACC2 obtained from the above Preparation Examples were preincubated in an assay buffer (50 mM HEPES-KOH (pH 7.4), 10 mM magnesium chloride, 6 to 10 mM potassium citrate, 4 mM reduced glutathione, and 1.5 mg/ml bovine serum albumin) for 1 hour. Then, 5 μL of the pre-incubated enzyme solution and 5 μL of a substrate solution (50 mM HEPES-KOH (pH 7.4), 1 mM ATP, 0.8 mM acetyl-CoA, and 25 to 50 mM potassium bicarbonate) were added to a 384-well microplate into which 0.2 μL of each of solutions of the compound of the present invention (DMSO) had been dispensed, and the mixture was centrifuged and shaken, and then incubated in a wet box at room temperature for 1 to 3 hours. After incubation, the enzymatic reaction was stopped by addition of EDTA, and then the compound was co-crystallized with an α-cyano-4-hydroxy cinnamic acid (CHCA) matrix on a MALDI target plate, and measurement was performed in a reflector negative mode using a matrix-assisted laser desorption ionization-time-of-flight mass spectrometer (MALDI-TOF MS). Deprotonated ions of the substrate acetyl-CoA (AcCoA) and the reaction product malonyl-CoA (MalCoA) were detected, and the intensity of each signal was used to calculate a conversion rate to malonyl-CoA […], i.e., intensity of [MalCoA-H]-/(intensity of [MalCoA-H]-+intensity of [AcCoA-H]-). […] The potassium citrate concentration in the assay buffer, the potassium bicarbonate concentration in the substrate solution, and the incubation time were adjusted within the above concentrations or reaction times for each lot of the enzyme to be used.

[2] = Metabolic stability test (human); type: in vitro ADME; details: human liver microsomes, 37° C., 30 minutes, NADPH
Experimental: (§1) Commercially available pooled human liver microsomes were reacted with the compound of the present invention for a given time. A residual rate was calculated by comparison between the reacted sample and the unreacted sample to evaluate a degree at which the compound of the present invention is metabolized in the liver.
(§2) The compound was reacted at 37° C. for 0 minutes or 30 minutes in the presence of 1 mmol/L NADPH in 0.2 mL of a buffer (50 mmol/L Tris-HCl pH 7.4, 150 mmol/L potassium chloride, and 10 mmol/L magnesium chloride) containing 0.5 mg protein/mL of the human liver microsomes (oxidative reaction). After the reaction, 50 μL of the reaction solution was added to 100 μL of a solution of methanol/acetonitrile=1/1 (v/v) and mixed, and the mixture was centrifuged at 3000 rpm for 15 minutes. The compound of the present invention in the centrifuged supernatant was quantified by LC/MS/MS or solid-phase extraction (SPE)/MS. The amount of the compound of the present invention remained after the reaction was calculated with the amount of the compound at 0 minutes of the reaction defined as 100%.

[3] = Metabolic stability test (rat); type: in vitro ADME
Experimental: [Worded in the source for another species; this species is reported under the same test.] as §1, §2

[4] = test system: mice fed an ultra-high fat, choline-deficient, methionine-lowered diet; test: Effect on liver fibrosis progression in mice fed ultra-high fat, choline-deficient, methionine-lowered diet; type: in vivo, C57BL/6JJcl mice; parameters: 3-hydroxybutyric acid in plasma: unit not given here; details: for Amount of triglyceride in liver / Sirius red-positive area rate / 3-hydroxybutyric acid in plasma / Plasma triglyceride concentration: bid; for Amount of triglyceride in liver / Sirius red-positive area rate: oral, 8 weeks; for gene expression level in the liver, Fasn / gene expression level in the liver, Srebf1: vehicle = 1.00
Experimental: Six-week-old male C57BL/6JJcl mice were fed an ultra-high fat, choline-deficient, methionine-lowered diet (60 kcal % fat content, using lard, choline-deficient, methionine-lowered (0.1%)), and at the same time, the compound of the present invention was suspended in a vehicle (0.5% methylcellulose aqueous solution) so as to have a dose of 3 to 45 mg/kg/10 mL, and orally repeatedly administered (b.i.d.) for 8 weeks. Blood was collected from the tail vein during the repeated administration period, and biochemical parameters in plasma were measured. After 8 weeks of administration, blood was collected from the abdominal vena cava under anesthesia, and then the liver was collected. Paraffin-embedded sections prepared from the collected liver were subjected to Sirius red staining. A degree of fibrosis progression in the liver was determined from a Sirius red-positive area rate and evaluated.

C[C@@H](CO[C@H]1CC[C@H](Oc2nc3c(F)cc(OC4CC4)cc3n2C)CC1)NC(N)=O [Compound I-12]
IC50 [1]: 6.9 µM
Amount of compound remained, Human [2]: 83.3%
Amount of compound remained, Rat [3]: 85.5%
Amount of triglyceride in liver ([4]; 3 mg/kg): 157 ± 7.3 mg/g tissue
Sirius red-positive area rate ([4]; 3 mg/kg): 3.47 ± 0.41%
3-hydroxybutyric acid in plasma ([4]; 3 mg/kg, Week 2): 128 ± 23
Plasma triglyceride concentration ([4]; 3 mg/kg, Week 2): 32.9 ± 1.3 mg/dL
3-hydroxybutyric acid in plasma ([4]; 3 mg/kg, Week 4): 155 ± 31
Plasma triglyceride concentration ([4]; 3 mg/kg, Week 4): 22.4 ± 2.1 mg/dL
3-hydroxybutyric acid in plasma ([4]; 3 mg/kg, Week 7): 108 ± 31
Plasma triglyceride concentration ([4]; 3 mg/kg, Week 7): 27.2 ± 1.5 mg/dL
Amount of triglyceride in liver ([4]; 10 mg/kg): 137 ± 7.2 mg/g tissue
Sirius red-positive area rate ([4]; 10 mg/kg): 4.46 ± 0.69%
3-hydroxybutyric acid in plasma ([4]; 10 mg/kg, Week 2): 136 ± 23
Plasma triglyceride concentration ([4]; 10 mg/kg, Week 2): 30.4 ± 2.2 mg/dL
3-hydroxybutyric acid in plasma ([4]; 10 mg/kg, Week 4): 292 ± 27
Plasma triglyceride concentration ([4]; 10 mg/kg, Week 4): 21.5 ± 1.8 mg/dL
3-hydroxybutyric acid in plasma ([4]; 10 mg/kg, Week 7): 119 ± 34
Plasma triglyceride concentration ([4]; 10 mg/kg, Week 7): 22.1 ± 1.9 mg/dL
Amount of triglyceride in liver ([4]; 30 mg/kg): 144 ± 7.5 mg/g tissue
Sirius red-positive area rate ([4]; 30 mg/kg): 2.29 ± 0.32 %
3-hydroxybutyric acid in plasma ([4]; 30 mg/kg, Week 2): 189 ± 33
Plasma triglyceride concentration ([4]; 30 mg/kg, Week 2): 23.1 ± 2.5 mg/dL
3-hydroxybutyric acid in plasma ([4]; 30 mg/kg, Week 4): 292 ± 82
Plasma triglyceride concentration ([4]; 30 mg/kg, Week 4): 11.1 ± 1.1 mg/dL
3-hydroxybutyric acid in plasma ([4]; 30 mg/kg, Week 7): 187 ± 28
Plasma triglyceride concentration ([4]; 30 mg/kg, Week 7): 16.2 ± 1.6 mg/dL
Sirius red-positive area rate vs vehicle administration group (in words) ([4]; dose of 30 mg/kg): significantly lower than that of the vehicle administration group
amount of triglyceride in the liver vs vehicle administration group (in words) ([4]; dose of 10 or 30 mg/kg): significantly lower than that of the vehicle administration group
concentration of 3-hydroxybutyric acid in plasma vs vehicle administration group (in words) ([4]; mouse, in vivo): higher than that in the vehicle administration group
plasma triglyceride concentration vs vehicle administration group (in words) ([4]; mouse, in vivo): lower than that in the vehicle administration group

CC(=O)N[C@@H](C)CC[C@H]1OC[C@H](Oc2nc3c(F)cc(OC4CC4)cc3n2C)CO1 [Compound I-13]
IC50 [1]: 0.91 µM
Amount of compound remained, Human [2]: 95.4%
Amount of compound remained, Rat [3]: 87%
Amount of triglyceride in liver ([4]; 15 mg/kg): 179 ± 6.8 mg/g tissue
Sirius red-positive area rate ([4]; 15 mg/kg): 1.33 ± 0.20%
3-hydroxybutyric acid in plasma ([4]; 15 mg/kg, Week 0): 298 ± 27
Plasma triglyceride concentration ([4]; 15 mg/kg, Week 0): 61.6 ± 3.1 mg/dL
3-hydroxybutyric acid in plasma ([4]; 15 mg/kg, Week 1): 396 ± 30
Plasma triglyceride concentration ([4]; 15 mg/kg, Week 1): 23.7 ± 1.0 mg/dL
3-hydroxybutyric acid in plasma ([4]; 15 mg/kg, Week 3): 797 ± 48
Plasma triglyceride concentration ([4]; 15 mg/kg, Week 3): 19.8 ± 1.2 mg/dL
3-hydroxybutyric acid in plasma ([4]; 15 mg/kg, Week 5): 616 ± 37
Plasma triglyceride concentration ([4]; 15 mg/kg, Week 5): 19.0 ± 1.7 mg/dL
3-hydroxybutyric acid in plasma ([4]; 15 mg/kg, Week 7): 501 ± 28
Plasma triglyceride concentration ([4]; 15 mg/kg, Week 7): 18.8 ± 1.2 mg/dL
gene expression level in the liver, Fasn ([4]; 15 mg/kg): 0.82 ± 0.20
gene expression level in the liver, Srebf1 ([4]; 15 mg/kg): 0.70 ± 0.19
Amount of triglyceride in liver ([4]; 45 mg/kg): 155 ± 7.1 mg/g tissue
Sirius red-positive area rate ([4]; 45 mg/kg): 1.06 ± 0.10 %
3-hydroxybutyric acid in plasma ([4]; 45 mg/kg, Week 0): 369 ± 28
Plasma triglyceride concentration ([4]; 45 mg/kg, Week 0): 63.6 ± 3.7 mg/dL
3-hydroxybutyric acid in plasma ([4]; 45 mg/kg, Week 1): 378 ± 28
Plasma triglyceride concentration ([4]; 45 mg/kg, Week 1): 22.4 ± 2.5 mg/dL
3-hydroxybutyric acid in plasma ([4]; 45 mg/kg, Week 3): 688 ± 72
Plasma triglyceride concentration ([4]; 45 mg/kg, Week 3): 18.9 ± 1.4 mg/dL
3-hydroxybutyric acid in plasma ([4]; 45 mg/kg, Week 5): 564 ± 77
Plasma triglyceride concentration ([4]; 45 mg/kg, Week 5): 16.5 ± 1.7 mg/dL
3-hydroxybutyric acid in plasma ([4]; 45 mg/kg, Week 7): 462 ± 45
Plasma triglyceride concentration ([4]; 45 mg/kg, Week 7): 15.1 ± 1.0 mg/dL
gene expression level in the liver, Fasn ([4]; 45 mg/kg): 0.59 ± 0.09
gene expression level in the liver, Srebf1 ([4]; 45 mg/kg): 0.34 ± 0.05
Sirius red-positive area rate vs vehicle administration group (in words) ([4]; dose of 45 mg/kg): significantly lower than that of the vehicle administration group
amount of triglyceride in the liver vs vehicle administration group (in words) ([4]; dose of 45 mg/kg): significantly lower than that of the vehicle administration group
Srebf1 and Fas in the liver (in words) ([4]; mouse, in vivo): no increase in Srebf1 and Fas in the liver was observed
concentration of 3-hydroxybutyric acid in plasma vs vehicle administration group (in words) ([4]; mouse, in vivo): higher than that in the vehicle administration group
plasma triglyceride concentration vs vehicle administration group (in words) ([4]; mouse, in vivo): lower than that in the vehicle administration group
